Converted amounts (≈) assume the structure as drawn.
Key:
[1] = system: M. tuberculosis susceptible strain 14241; experiment: MIC by microplate alamarBlue assay (MABA); type: cell-based, Mycobacterium tuberculosis; settings: Mycobacterium tuberculosis
[2] = system: M. tuberculosis susceptible strain 14242; experiment: MIC by microplate alamarBlue assay (MABA); type: cell-based, Mycobacterium tuberculosis; settings: Mycobacterium tuberculosis
[3] = system: M. tuberculosis susceptible strain 14280; experiment: MIC by microplate alamarBlue assay (MABA); type: cell-based, Mycobacterium tuberculosis; settings: Mycobacterium tuberculosis
[4] = system: M. tuberculosis susceptible strain 14286; experiment: MIC by microplate alamarBlue assay (MABA); type: cell-based, Mycobacterium tuberculosis; settings: Mycobacterium tuberculosis
[5] = system: M. tuberculosis susceptible strain 14480; experiment: MIC by microplate alamarBlue assay (MABA); type: cell-based, Mycobacterium tuberculosis; settings: Mycobacterium tuberculosis
M. tuberculosis H37Rv [6] = experiment: MIC by microplate alamarBlue assay (MABA); type: cell-based, Mycobacterium tuberculosis; settings: Mycobacterium tuberculosis, H37RV
[7] = system: M. tuberculosis H37Rv and two clinical isolates (14619, 14242); experiment: Time-kill curve analysis; type: cell-based, Mycobacterium tuberculosis; settings: up to 14 days culture
[8] = Pharmacokinetic study in mice; type: in vivo, BALB/c mice; settings: for half-life: plasma; for half-life / At 96 h lung/plasma: lung / At 96 h lung/plasma: plasma: Mice; for At 96 h lung/plasma: lung: lung exposure at 96 h (first number of the pair); for At 96 h lung/plasma: plasma: plasma exposure at 96 h (second number of the pair)
Method: (§1) The BALB/c mice, rats, and beagle dogs were used in the PK study and fasted overnight before dosing. Animal doses were administered in two ways. […] Plasma samples were collected from three animals at each time point. Plasma concentrations were determined by liquid chromatography-tandem mass spectrometry (LC-MS/MS). The bioanalytical method by LC-MS/MS for pharmacokinetic (PK) studies in animal and toxicokinetic (TK) in tox studies have been validated. The total area under the concentration-time curve (AUC0-inf), the elimination half-time (t1/2), the peak concentration (Cmax), and the time to reach peak concentration (Tmax) of samples were determined directly from the experimental data using WinNonlin V6.2.1.

[9] = Pharmacokinetic study in rats; type: in vivo, rat; settings: for At 96 h lung/plasma: lung / At 96 h lung/plasma: plasma / half-life: Rat; for At 96 h lung/plasma: lung: lung exposure at 96 h (first number of the pair); for At 96 h lung/plasma: plasma: plasma exposure at 96 h (second number of the pair); for half-life: plasma
Method: as §1

[10] = Pharmacokinetic study in beagle dogs; type: in vivo; settings: dog; for AUC(0-inf): AUC0-inf; for half-life: plasma
Method: The BALB/c mice, rats, and beagle dogs were used in the PK study and fasted overnight before dosing. Animal doses were administered in two ways. One is oral administration, configured to form a 6.25 mg/kg WX-081, with 0.5% carboxymethylcellulose (CMC), the other is the WX-081 with an intravenous injection of 1.0 mg/kg (formulated in 40% hydroxypropyl-β-cyclodextrin and 50 mM citrate buffer at pH 3). Plasma samples were collected from three animals at each time point. Plasma concentrations were determined by liquid chromatography-tandem mass spectrometry (LC-MS/MS). The bioanalytical method by LC-MS/MS for pharmacokinetic (PK) studies in animal and toxicokinetic (TK) in tox studies have been validated. The total area under the concentration-time curve (AUC0-inf), the elimination half-time (t1/2), the peak concentration (Cmax), and the time to reach peak concentration (Tmax) of samples were determined directly from the experimental data using WinNonlin V6.2.1.

[11] = Preliminary in vivo toxicity study in mice
Method: Before the in vivo activity test, a preliminary in vivo toxicity study was conducted. All mice tolerated WX-081 at the administered doses. No adverse events were found.

M. tuberculosis H37Rv [12] = type: in vivo, BALB/c mice; settings: acute model
M. tuberculosis H37Rv [13] = type: in vivo, BALB/c mice
[14] = 14-day repeated oral dose toxicity and toxicokinetic head-to-head study in beagle dogs; type: in vivo, beagle dog
[15] = target: T1, human ether-á-go-go-related (hERG) ion channel (Homo sapiens, UniProt Q12809); experiment: hERG manual patch-clamp assay in hERG-CHO cell; type: cell-based; settings: parent compound
T1 construct: expressed in transfected cells; host or cells: hERG-CHO cell (CHO cells expressing hERG)
T1 sequence (Q12809 whole entry): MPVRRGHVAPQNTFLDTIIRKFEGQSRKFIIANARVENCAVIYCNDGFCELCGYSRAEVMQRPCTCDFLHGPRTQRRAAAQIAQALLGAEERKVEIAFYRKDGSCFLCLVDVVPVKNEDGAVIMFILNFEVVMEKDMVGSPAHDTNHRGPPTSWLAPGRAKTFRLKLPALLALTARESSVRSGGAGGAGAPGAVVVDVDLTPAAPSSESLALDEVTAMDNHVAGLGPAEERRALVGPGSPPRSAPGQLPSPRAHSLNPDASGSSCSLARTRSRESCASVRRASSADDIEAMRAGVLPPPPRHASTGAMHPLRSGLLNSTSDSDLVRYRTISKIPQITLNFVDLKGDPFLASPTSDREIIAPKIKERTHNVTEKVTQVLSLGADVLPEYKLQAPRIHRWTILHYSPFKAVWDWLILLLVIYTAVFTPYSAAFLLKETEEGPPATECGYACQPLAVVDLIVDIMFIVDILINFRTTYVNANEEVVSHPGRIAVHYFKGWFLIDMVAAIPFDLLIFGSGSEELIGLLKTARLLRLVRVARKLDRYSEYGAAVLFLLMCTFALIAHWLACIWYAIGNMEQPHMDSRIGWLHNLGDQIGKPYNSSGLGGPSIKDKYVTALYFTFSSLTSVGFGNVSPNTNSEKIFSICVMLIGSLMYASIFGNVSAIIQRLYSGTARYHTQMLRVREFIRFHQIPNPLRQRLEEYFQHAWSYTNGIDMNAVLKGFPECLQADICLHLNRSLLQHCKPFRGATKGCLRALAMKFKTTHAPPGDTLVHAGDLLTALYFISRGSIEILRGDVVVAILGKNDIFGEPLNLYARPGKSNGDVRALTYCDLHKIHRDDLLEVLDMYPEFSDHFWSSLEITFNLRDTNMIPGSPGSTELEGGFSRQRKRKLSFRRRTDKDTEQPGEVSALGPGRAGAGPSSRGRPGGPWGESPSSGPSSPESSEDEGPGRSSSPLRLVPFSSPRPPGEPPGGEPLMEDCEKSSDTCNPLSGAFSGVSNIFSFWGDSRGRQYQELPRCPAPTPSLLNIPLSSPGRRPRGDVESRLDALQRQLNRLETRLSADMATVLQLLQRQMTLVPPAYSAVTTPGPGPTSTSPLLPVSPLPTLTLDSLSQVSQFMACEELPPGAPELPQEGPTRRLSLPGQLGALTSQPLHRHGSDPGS
Method: A human ether-á-go-go-related (hERG) ion channel in vitro assay was performed in Shanghai Institute of Materia Medica, Shanghai, for the evaluation of cardiac liability testing. The assay was a manual patch-clamp method using electrophysiology in an hERG-CHO cell.

[16] = system: M. tuberculosis susceptible strain 14242; experiment: MBC determination (CFU-based); settings: 7 days incubation, 3 log10 CFU decrease
M. tuberculosis H37Rv [17] = experiment: MBC determination (CFU-based); settings: 7 days incubation, 3 log10 CFU decrease
[18] = BALB/c, mouse, in vivo, iv, 1 mg/kg
[19] = BALB/c, mouse, in vivo, po, 6.25 mg/kg
[20] = beagle dogs, 200 mg/kg oral, 14 days

COc1ncc(-c2ccc(Cl)cc2)cc1[C@@H](c1ccccc1)[C@@](O)(CCN(C)C)c1cccc2ccccc12 [WX-081, sudapyridine]
MIC [1]: 0.117 µg/mL (≈ 0.218 µM)
MIC [2]: 0.219 µg/mL (≈ 0.408 µM)
MIC [3]: 0.124 µg/mL (≈ 0.231 µM)
MIC [4]: 0.152 µg/mL (≈ 0.283 µM)
MIC [5]: 0.12 µg/mL (≈ 0.223 µM)
MIC (M. tuberculosis H37Rv [6]): 0.07 µg/mL (≈ 0.13 µM)
concentration showing bactericidal effects in time-kill test [7]: ≥ 4 × MIC
AUC(0-inf) [8, 18]: 4800 ng·h/mL
AUC(0-t) [8, 18]: 3990 ng·h/mL
Vd [8, 18]: 10.4 L/kg
clearance [8, 18]: 3.59 mL/min/kg
AUC(0-inf) [8, 19]: 11900 ng·h/mL
AUC(0-t) [8, 19]: 10200 ng·h/mL
Cmax [8, 19]: 503 ng/mL
Tmax [8, 19]: 7.33 h
bioavailability [8, 19]: 40.7%
half-life ([8]; BALB/c, mouse, Iv. 1.0 mg/kg): 46.3 h
half-life ([8]; BALB/c, mouse, Po. 6.25 mg/kg): 43.9 h
At 96 h lung/plasma: lung ([8]; Iv. 1.0 mg/kg): 241
At 96 h lung/plasma: plasma ([8]; Iv. 1.0 mg/kg): 12.4
At 96 h lung/plasma: lung ([8]; Po. 6.25 mg/kg): 857
At 96 h lung/plasma: plasma ([8]; Po. 6.25 mg/kg): 25.3
At 96 h lung/plasma: lung ([9]; Iv. 1.0 mg/kg): 235
At 96 h lung/plasma: plasma ([9]; Iv. 1.0 mg/kg): 3.61
At 96 h lung/plasma: lung ([9]; Po. 5.0 mg/kg): 337
At 96 h lung/plasma: plasma ([9]; Po. 5.0 mg/kg): 4.74
half-life ([9]; Iv. 1.0 mg/kg): 25.6 h
half-life ([9]; Po. 5.0 mg/kg): 29.8 h
AUC(0-inf) ([9]; rat, in vivo, iv, 1 mg/kg): 2350 ng·h/mL
AUC(0-t) ([9]; rat, in vivo, iv, 1 mg/kg): 2220 ng·h/mL
Vd ([9]; rat, in vivo, iv, 1 mg/kg): 9.2 L/kg
clearance ([9]; rat, in vivo, iv, 1 mg/kg): 8.25 mL/min/kg
AUC(0-inf) ([9]; rat, in vivo, po, 5 mg/kg): 4310 ng·h/mL
AUC(0-t) ([9]; rat, in vivo, po, 5 mg/kg): 4080 ng·h/mL
Cmax ([9]; rat, in vivo, po, 5 mg/kg): 328 ng/mL
Tmax ([9]; rat, in vivo, po, 5 mg/kg): 1 h
bioavailability ([9]; rat, in vivo, po, 5 mg/kg): 36.7%
AUC(0-t) ([10]; in vivo, iv, 0.5 mg/kg): 3610 ng·h/mL
Vd ([10]; in vivo, iv, 0.5 mg/kg): 6.04 L/kg
clearance ([10]; in vivo, iv, 0.5 mg/kg): 2.04 mL/min/kg
AUC(0-inf) ([10]; in vivo, iv, 0.5 mg/kg): 4250 ng·h/mL
AUC(0-t) ([10]; in vivo, po, 2 mg/kg): 8500 ng·h/mL
bioavailability ([10]; in vivo, po, 2 mg/kg): 58.9%
AUC(0-inf) ([10]; in vivo, po, 2 mg/kg): 9490 ng·h/mL
Cmax ([10]; in vivo, po, 2 mg/kg): 390 ng/mL
Tmax ([10]; in vivo, po, 2 mg/kg, Tmax): 4.67 h
AUC(0-t) ([10]; in vivo, po, 6 mg/kg): 20200 ng·h/mL
bioavailability ([10]; in vivo, po, 6 mg/kg): 46.6%
AUC(0-inf) ([10]; in vivo, po, 6 mg/kg): 22800 ng·h/mL
Cmax ([10]; in vivo, po, 6 mg/kg): 1080 ng/mL
Tmax ([10]; in vivo, po, 6 mg/kg, Tmax): 5.33 h
AUC(0-t) ([10]; in vivo, po, 20 mg/kg): 50400 ng·h/mL
bioavailability ([10]; in vivo, po, 20 mg/kg): 34.9%
Tmax ([10]; in vivo, po, 20 mg/kg, Tmax): 7.67 h
Tmax ([10]; in vivo, po, 20 mg/kg, time to peak concentration (Tmax)): 4.6 to 7.7 h
half-life ([10]; iv, 0.5 mg/kg, Dog, Iv. 0.5 mg/kg, read-out: t1/2 (converted)): 56.2 h
half-life ([10]; po, 2 mg/kg, Dog, Po. 2.0 mg/kg, read-out: t1/2 (converted)): 51.1 h
half-life ([10]; po, 6 mg/kg, Dog, Po. 6.0 mg/kg, read-out: t1/2 (converted)): 55.6 h
half-life ([10]; po, 20 mg/kg, Dog, Po. 20.0 mg/kg, read-out: t1/2 (converted)): 57.6 h
half-life ([10]; po, 20 mg/kg, beagle dogs, oral, range over doses of 2, 6, or 20 mg/kg, read-out: plasma half-life (t1/2)): 51 to 58 h
LD50 ([11]; mouse, in vivo, read-out: LD50 (dose that caused at least 50% of mice to die)): > 3000 mg/kg
tolerability at the administered doses ([11]; no adverse events were found): tolerated
reduction in CFU compared with BDQ at 10 mg/kg (M. tuberculosis H37Rv [12]; 10 mg/kg, P < 0.05): larger reduction in CFU than BDQ
activity compared with BDQ at the equivalent dose (M. tuberculosis H37Rv [12]; 20 mg/kg): no difference from that of BDQ
culturable organisms in mouse lungs (M. tuberculosis H37Rv [12]; daily 20 mg/kg monotherapy, 20 days): all culturable organisms’ clearance
reduction of CFU in the lungs compared with 15 mg/kg RFP (M. tuberculosis H37Rv [13]; chronic model, 5 mg/kg, 8-week treatment): superior
activity compared with BDQ (M. tuberculosis H37Rv [13]; chronic model, 5, 10, and 20 mg/kg orally, 8 weeks): slightly lower than BDQ, there was no significant difference in activity
lung CFU after 8 weeks of treatment (M. tuberculosis H37Rv [13]; chronic model, any dose (5, 10, 20 mg/kg)): declined
mortality and moribundity ([14]; 200 mg/kg oral once daily, 14 days, male and female dogs): did not result in mortality and moribundity
ECG: HR [14, 20]: Slowing of the heart rate
ECG: QT interval [14, 20]: Physiologically appropriate lengthening of the QT interval
ECG: RR/PR interval [14, 20]: Lengthening of the RR interval
qualitative ECG changes associated with oral administration [14, 20]: no qualitative ECG changes
effects on blood pressure, heart rate, or qualitative ECG parameters ([14]; dog, in vivo): no adverse effects
cTnI ([14]; dog, in vivo, po, 200 mg/kg): no significant changes
IC50 [15]: > 30 µM
MBCs [16]: 0.313 µg/mL
MBCs (M. tuberculosis H37Rv [17]): 2.500 µg/mL
